We go through 13 compounds from PubChem BioAssay (NCI).

Holding throughout (assay): DTP human tumour cell line panel, 48 h
The subject of test [1] is OVCAR-4 ovarian.
For test [2], the system named is HL-60(TB) leukemia.
Test [3] deals with SF-268 CNS.
Test [4] concerns UACC-257 melanoma.
Test [5] relates to SK-MEL-28 melanoma.
Test [6] has as its system MALME-3M melanoma.
The test system of test [7] is UO-31 renal.
Test [8] has as its system RPMI-8226 leukemia.
The test system of test [9] is OVCAR-3 ovarian.
The test system of test [10] is RXF 393 renal.

The structures appear in SMILES notation.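 Dose response: 5 concentrations. Exposure: 48 h. Format: 96-well plates. Endpoint: linear interpolation; highest concentration if not reached. The concentration for full growth arrest is given as TGI.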 Some results are limits rather than exact numbers.

As a reminder, the TGI is the concentration at which net growth stops.

As to `O=c1oc2ccccc2c(O)c1C(c1ccc(OCc2ccccc2)cc1)c1c(O)c2ccccc2oc1=O`, the TGI in test [1] is greater than 100 µM; in test [2], 65.9 µM; in [3], greater than 100 µM; in [4], greater than 100 µM; in test [5] it was greater than 100 µM; in [6], greater than 100 µM. For the same compound, the concentration for total growth inhibition (TGI) is 52.5 µM in test [7], greater than 100 µM in test [8], greater than 100 µM in test [9] and greater than 100 µM in test [10].
`C=C(C)C1(Sc2ccc(OC)cc2)CC1`: the concentration for total growth inhibition (TGI) is greater than 100 µM in [1]; 41.6 µM in test [2]; 67 µM in test [3]; 55.7 µM in test [4]; greater than 100 µM in test [5]; 66.9 µM in [6]. Further, the TGI in test [7] is greater than 100 µM; in test [8], greater than 100 µM; in test [9] it was 29.7 µM; in test [10], 36.3 µM.
On to `N=C1C=CC(=C(c2ccc(N)cc2)c2ccc(N)cc2)C=C1`, for which the concentration for total growth inhibition (TGI) in test [1] was found to be 52.4 µM; in test [2] it was 36.1 µM; in test [3], 14.9 µM; in test [4] it was 18.1 µM; in test [5] it was 26.1 µM; in test [6], 13.3 µM. Also, the TGI in test [7] is 29.2 µM; in test [8] it was 18.4 µM; in test [9], 25.2 µM; in test [10], 23 µM.
For the compound `O=C(O)C(Cc1ccccc1)Cc1ccccc1`, the TGI in [1], in [2], in [3], in test [4], in [5] and in [6] was greater than 100 µM throughout. In addition, the TGI in [7], in test [8], in test [9] and in test [10] was greater than 100 µM each time.
For `O=C(CCCCCNC(=O)c1ccc(Cl)cc1)NO`, the TGI in test [1] is greater than 100 µM; in test [2] it was 16.1 µM; in test [3] it was 57.1 µM; in test [4] it was 14.5 µM; in test [5] it was greater than 100 µM; in [6], greater than 100 µM. Also, the TGI in test [7] was 37.8 µM; in test [8], greater than 100 µM; in test [9], 13 µM; in test [10], 19.8 µM.
In the case of `COCC(C#N)NC1CC(OC2CC(O)(C(=O)CO)Cc3c(O)c4c(c(O)c32)C(=O)c2c(OC)cccc2C4=O)OC(C)C1O` (stereo not given), the TGI in test [1] came out at 2.08 µM; in [2] it was 0.432 µM; in test [3], 0.691 µM; in test [4], 0.368 µM; in test [5], 0.527 µM; in [6] it was 0.18 µM. Further, the TGI in test [7] was 2.77 µM; in test [8], 1.15 µM; in test [9] it was 3 µM; in test [10], 0.497 µM.
On to `C1=CC2C(C3CN(c4ccccc4)N=C13)C1C3C4C=CC21C=CC43` (stereo not given), for which the TGI in [1], in [2], in test [3], in test [4], in test [5] and in test [6] was greater than 100 µM in each case. Also, the TGI in test [7], in test [8], in [9] and in test [10] was greater than 100 µM in each case.
For the compound `COc1ccc(C2N(c3ccc(C)c(N=C=O)c3)C(=O)N3C(c4ccc(OC)cc4)N(c4ccc(C)c(N=C=O)c4)C(=O)N23)cc1` (stereo not given), the TGI is greater than 100 µM in test [1]; greater than 100 µM in [2]; greater than 100 µM in test [3]; greater than 100 µM in test [4]; greater than 100 µM in [5]; 96.1 µM in test [6]. In addition, the concentration for total growth inhibition (TGI) in test [7], in test [8], in [9] and in test [10] was greater than 100 µM each time.
On to `NS(=O)(=O)c1ccc(-c2ccc([As](=O)(O)O)cc2)cc1`, for which the TGI in test [1], in test [2], in [3], in test [4], in test [5] and in test [6] was greater than 100 µM each time. In addition, the TGI in [7], in test [8], in test [9] and in [10] was greater than 100 µM throughout.
Regarding `c1ccc2c(c1)nnn2C1CCCCO1` (stereo not given), the TGI in test [1], in [2], in [3], in test [4], in test [5] and in [6] was greater than 100 µM throughout. Moreover, the total growth inhibition concentration (TGI) in test [7], in test [8], in [9] and in [10] was greater than 100 µM throughout.
For the compound `C[Si](C)(C)OC1(C#N)c2ccccc2CCCC12CCCC2` (stereo not given), the TGI in [1] is greater than 100 µM; in [2], 39.2 µM; in [3] it was greater than 100 µM; in [4], 58.3 µM; in test [5] it was greater than 100 µM; in test [6] it was greater than 100 µM. In addition, the TGI in test [7] was greater than 100 µM; in [8], 51.5 µM; in test [9] it was greater than 100 µM; in [10], 88.1 µM.
`Cc1ccc(C)n1-c1ccccc1C1C=Cn2c(=O)oc3c(OC(C)C)c(OC(C)C)c(O)c1c32` (stereo not given): the concentration for total growth inhibition (TGI) in test [1], in test [2], in test [3], in test [4], in [5] and in [6] was greater than 100 µM each time. Further, the TGI was 31.9 µM in test [7], greater than 100 µM in test [8], greater than 100 µM in test [9] and 32.7 µM in [10].
`CCC[N+](C)(C)CCCNC(=O)c1c(O)c2ccccc2[nH]c1=O`: the TGI in [1], in test [2], in test [3], in test [4], in test [5] and in test [6] was greater than 100 µM in each case. The TGI in test [7], in [8], in test [9] and in [10] was greater than 100 µM each time.
